Assay results as given in patent US10308639B2, “Phosphatidylinositol 3-kinase inhibitors” (Gilead Sciences, Inc., priority 2014, dated 2019).

Columns and labels:
Format in all cases: biochemical
PI3Kβ = target: T1, PI3Kβ (Homo sapiens, UniProt P42338); experiment: TR-FRET enzymatic activity assay, PI3Kβ; details: Table 2; TR-FRET, 2x Km ATP, 30 minutes at 25° C.
T1 construct: made in house

PI3Kγ = target: T2, PI3Kγ (Homo sapiens, UniProt P48736); experiment: TR-FRET enzymatic activity assay, PI3Kγ; details: Table 2; TR-FRET, 2x Km ATP, 30 minutes at 25° C.; read-out: PI3Kγ IC50
T2 construct: made in house
Description: The compounds of formula (I) were characterized for their enzymatic activity against the PI3K isoforms. The activities were measured using a time-resolved fluorescence resonance energy transfer (TR-FRET) assay.

PI3Kδ = target: T3, PI3Kδ (Homo sapiens, UniProt O00329); experiment: TR-FRET enzymatic activity assay, PI3Kδ; details: Table 2; TR-FRET, 2x Km ATP, 30 minutes at 25° C.
T3 construct: made in house
T3 sequence (O00329 whole entry): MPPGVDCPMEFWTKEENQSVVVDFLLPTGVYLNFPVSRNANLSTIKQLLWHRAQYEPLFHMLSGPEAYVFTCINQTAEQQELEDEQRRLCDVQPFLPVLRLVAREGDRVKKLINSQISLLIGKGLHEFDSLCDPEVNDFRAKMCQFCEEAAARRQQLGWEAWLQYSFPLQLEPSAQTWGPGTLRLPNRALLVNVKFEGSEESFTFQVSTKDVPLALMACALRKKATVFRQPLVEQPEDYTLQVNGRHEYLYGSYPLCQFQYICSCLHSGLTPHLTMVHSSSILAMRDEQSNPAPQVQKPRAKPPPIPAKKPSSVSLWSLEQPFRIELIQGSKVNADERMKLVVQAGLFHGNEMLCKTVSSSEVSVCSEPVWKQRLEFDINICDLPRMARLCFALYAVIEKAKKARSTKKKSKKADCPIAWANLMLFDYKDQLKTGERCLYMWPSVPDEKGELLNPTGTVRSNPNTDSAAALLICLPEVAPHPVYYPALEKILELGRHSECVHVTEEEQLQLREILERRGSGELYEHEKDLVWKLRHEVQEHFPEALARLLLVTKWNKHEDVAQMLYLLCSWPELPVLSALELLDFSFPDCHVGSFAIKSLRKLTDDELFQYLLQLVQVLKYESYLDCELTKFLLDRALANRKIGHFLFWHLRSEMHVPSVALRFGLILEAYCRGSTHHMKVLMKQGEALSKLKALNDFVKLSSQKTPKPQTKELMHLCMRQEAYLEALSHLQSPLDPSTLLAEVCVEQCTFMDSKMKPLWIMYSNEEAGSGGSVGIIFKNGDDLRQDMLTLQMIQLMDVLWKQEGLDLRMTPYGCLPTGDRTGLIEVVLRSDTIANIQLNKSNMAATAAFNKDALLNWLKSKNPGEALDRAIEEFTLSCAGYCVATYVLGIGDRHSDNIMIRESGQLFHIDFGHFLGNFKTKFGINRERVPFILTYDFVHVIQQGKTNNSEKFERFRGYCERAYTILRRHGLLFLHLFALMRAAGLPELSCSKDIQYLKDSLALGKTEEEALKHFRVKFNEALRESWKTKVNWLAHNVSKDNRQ
T3 sequence (P27986 whole entry partner): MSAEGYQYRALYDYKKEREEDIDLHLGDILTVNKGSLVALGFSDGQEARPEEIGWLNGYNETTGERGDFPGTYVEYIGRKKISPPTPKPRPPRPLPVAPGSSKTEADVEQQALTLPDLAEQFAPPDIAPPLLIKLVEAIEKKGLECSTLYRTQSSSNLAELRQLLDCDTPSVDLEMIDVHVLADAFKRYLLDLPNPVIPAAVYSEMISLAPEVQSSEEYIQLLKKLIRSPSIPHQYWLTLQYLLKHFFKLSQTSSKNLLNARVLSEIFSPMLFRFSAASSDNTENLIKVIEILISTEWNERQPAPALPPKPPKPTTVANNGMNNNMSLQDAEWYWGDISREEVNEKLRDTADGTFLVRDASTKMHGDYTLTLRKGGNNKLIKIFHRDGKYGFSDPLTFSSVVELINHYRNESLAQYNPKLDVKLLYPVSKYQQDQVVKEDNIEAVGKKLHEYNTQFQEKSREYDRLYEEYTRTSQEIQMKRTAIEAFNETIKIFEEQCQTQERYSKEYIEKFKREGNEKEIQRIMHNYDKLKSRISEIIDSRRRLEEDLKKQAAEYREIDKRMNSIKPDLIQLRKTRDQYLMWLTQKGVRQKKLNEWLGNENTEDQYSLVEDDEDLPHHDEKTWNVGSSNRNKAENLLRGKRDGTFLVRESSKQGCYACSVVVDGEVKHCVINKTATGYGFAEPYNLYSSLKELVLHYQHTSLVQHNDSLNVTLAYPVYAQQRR

T2 sequence (P48736 whole entry): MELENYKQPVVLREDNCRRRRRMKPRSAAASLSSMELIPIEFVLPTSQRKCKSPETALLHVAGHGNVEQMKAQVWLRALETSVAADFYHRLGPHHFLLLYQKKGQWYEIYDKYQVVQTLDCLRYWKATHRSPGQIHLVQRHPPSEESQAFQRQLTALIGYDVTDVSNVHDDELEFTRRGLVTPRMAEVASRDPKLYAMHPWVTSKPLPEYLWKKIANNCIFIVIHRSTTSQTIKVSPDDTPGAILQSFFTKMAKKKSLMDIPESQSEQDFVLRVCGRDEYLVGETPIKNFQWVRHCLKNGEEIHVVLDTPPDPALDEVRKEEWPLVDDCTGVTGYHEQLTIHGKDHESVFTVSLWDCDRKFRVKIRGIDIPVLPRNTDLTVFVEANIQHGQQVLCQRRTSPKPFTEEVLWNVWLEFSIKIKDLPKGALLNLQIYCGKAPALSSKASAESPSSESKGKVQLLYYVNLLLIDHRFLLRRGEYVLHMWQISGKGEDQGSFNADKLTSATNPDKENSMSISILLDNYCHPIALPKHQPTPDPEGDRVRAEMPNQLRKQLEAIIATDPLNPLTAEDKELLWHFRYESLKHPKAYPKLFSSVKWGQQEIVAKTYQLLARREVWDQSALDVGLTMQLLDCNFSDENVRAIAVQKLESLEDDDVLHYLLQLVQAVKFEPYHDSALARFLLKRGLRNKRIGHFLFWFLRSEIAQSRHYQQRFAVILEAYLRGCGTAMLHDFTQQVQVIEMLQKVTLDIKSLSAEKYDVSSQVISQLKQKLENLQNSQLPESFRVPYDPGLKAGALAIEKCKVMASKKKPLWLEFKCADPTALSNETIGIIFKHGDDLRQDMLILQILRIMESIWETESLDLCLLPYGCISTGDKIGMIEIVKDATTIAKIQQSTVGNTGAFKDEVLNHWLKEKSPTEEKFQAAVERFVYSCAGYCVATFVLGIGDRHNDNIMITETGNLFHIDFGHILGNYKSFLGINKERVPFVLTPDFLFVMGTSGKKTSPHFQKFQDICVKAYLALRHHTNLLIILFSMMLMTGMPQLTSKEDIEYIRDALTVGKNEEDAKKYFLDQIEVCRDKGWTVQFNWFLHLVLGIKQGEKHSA
T1 sequence (P42338 whole entry): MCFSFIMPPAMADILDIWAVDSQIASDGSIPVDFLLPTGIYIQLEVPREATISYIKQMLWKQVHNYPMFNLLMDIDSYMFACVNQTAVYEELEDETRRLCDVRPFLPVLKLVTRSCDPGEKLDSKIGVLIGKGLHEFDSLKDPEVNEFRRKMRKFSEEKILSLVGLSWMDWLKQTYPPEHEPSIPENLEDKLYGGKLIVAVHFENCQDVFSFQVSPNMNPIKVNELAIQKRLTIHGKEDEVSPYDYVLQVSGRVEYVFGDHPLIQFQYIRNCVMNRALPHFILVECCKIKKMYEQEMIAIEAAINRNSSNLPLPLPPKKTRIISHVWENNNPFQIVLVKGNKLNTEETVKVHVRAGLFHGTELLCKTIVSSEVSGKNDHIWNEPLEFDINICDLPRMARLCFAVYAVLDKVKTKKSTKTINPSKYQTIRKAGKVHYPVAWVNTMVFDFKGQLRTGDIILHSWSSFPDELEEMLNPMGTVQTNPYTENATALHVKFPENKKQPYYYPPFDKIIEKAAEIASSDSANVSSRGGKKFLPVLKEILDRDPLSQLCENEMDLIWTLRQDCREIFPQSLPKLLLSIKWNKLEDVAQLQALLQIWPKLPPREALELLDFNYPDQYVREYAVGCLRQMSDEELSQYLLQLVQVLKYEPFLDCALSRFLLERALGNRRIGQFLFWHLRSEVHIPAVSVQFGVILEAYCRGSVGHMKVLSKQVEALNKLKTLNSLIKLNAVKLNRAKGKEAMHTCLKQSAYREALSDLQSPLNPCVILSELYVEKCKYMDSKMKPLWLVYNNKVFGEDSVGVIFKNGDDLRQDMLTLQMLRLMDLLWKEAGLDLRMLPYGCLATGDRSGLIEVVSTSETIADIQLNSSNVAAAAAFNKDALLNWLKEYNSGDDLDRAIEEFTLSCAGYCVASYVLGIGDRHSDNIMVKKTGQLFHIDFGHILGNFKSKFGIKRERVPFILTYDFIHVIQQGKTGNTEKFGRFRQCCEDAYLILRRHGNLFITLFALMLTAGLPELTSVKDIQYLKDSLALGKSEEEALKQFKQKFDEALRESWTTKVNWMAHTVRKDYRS
T1 sequence (P27986 whole entry partner): as the sequence (P27986 whole entry partner) above

| Structure (SMILES) | IC50 (PI3Kβ) | IC50 (PI3Kγ) | IC50 (PI3Kδ) |
| --- | --- | --- | --- |
| Cc1nc(N)nc(N[C@H](c2nc3cccc(Cl)c3c(=O)n2-c2cn[nH]c2)C2CC2)c1C#N [Compound 27, (S)-2-amino-4-(((5-chloro-4-oxo-3-(1H-pyrazol-4-yl)-3,4-dihydroquinazolin-2-yl)(cyclopropyl)methyl)amino)-6-methylpyrimidine-5-carbonitrile] | 2 nM | 71 nM | 0.7 nM |
| N#Cc1c(N)nc(N)nc1N[C@H](c1nc2c(Cl)cccc2c(=O)n1-c1cn[nH]c1)C1CC1 [Compound 29, (S)-2,4-diamino-6-(((8-chloro-4-oxo-3-(1H-pyrazol-4-yl)-3,4-dihydroquinazolin-2-yl)(cyclopropyl)methyl)amino)pyrimidine-5-carbonitrile] | 3 nM | 440 nM | 6 nM |
| N#Cc1c(N)nc(N)nc1N[C@H](c1nc2c(Cl)cccc2c(=O)n1-c1cc[nH]n1)C1CC1 [Compound 30, (S)-2,4-diamino-6-(((8-chloro-4-oxo-3-(1H-pyrazol-3-yl)-3,4-dihydroquinazolin-2-yl)(cyclopropyl)methyl)amino)pyrimidine-5-carbonitrile] | 2 nM | 1300 nM | 3 nM |
| N#Cc1c(N)nc(N)nc1N[C@H](c1nc2c(Cl)ccc(Cl)c2c(=O)n1-c1cn[nH]c1)C1CC1 [Compound 31, (S)-2,4-diamino-6-((cyclopropyl(5,8-dichloro-4-oxo-3-(1H-pyrazol-4-yl)-3,4-dihydroquinazolin-2-yl)methyl)amino)pyrimidine-5-carbonitrile] | 1 nM | 160 nM | 1 nM |
| N#Cc1c(N)nc(N)nc1N[C@H](c1nc2c(Cl)ccc(Cl)c2c(=O)n1-c1cc[nH]n1)C1CC1 [Compound 32, (S)-2,4-diamino-6-((cyclopropyl(5,8-dichloro-4-oxo-3-(1H-pyrazol-3-yl)-3,4-dihydroquinazolin-2-yl)methyl)amino)pyrimidine-5-carbonitrile] | 1 nM | 600 nM | 1 nM |
| CC[C@H](Nc1nc(N)nc(N)c1C#N)c1nc2c(C)cccc2c(=O)n1-c1cn[nH]c1 [Compound 33, (S)-2,4-diamino-6-((1-(8-methyl-4-oxo-3-(1H-pyrazol-4-yl)-3,4-dihydroquinazolin-2-yl)propyl)amino)pyrimidine-5-carbonitrile] | 84 nM | 2000 nM | 22 nM |
| CC[C@H](Nc1nc(N)nc(N)c1C#N)c1nc2c(C)cccc2c(=O)n1-c1cc[nH]n1 [Compound 34, (S)-2,4-diamino-6-((1-(8-methyl-4-oxo-3-(1H-pyrazol-3-yl)-3,4-dihydroquinazolin-2-yl)propyl)amino)pyrimidine-5-carbonitrile] | 7 nM | 6100 nM | 8 nM |
| CC[C@H](Nc1nc(N)nc(N)c1C#N)c1nc2c(C)ccc(F)c2c(=O)n1-c1cn[nH]c1 [Compound 35, (S)-2,4-diamino-6-((1-(5-fluoro-8-methyl-4-oxo-3-(1H-pyrazol-4-yl)-3,4-dihydroquinazolin-2-yl)propyl)amino)pyrimidine-5-carbonitrile] | 21 nM | 1400 nM | 10 nM |
| CC[C@H](Nc1nc(N)nc(N)c1C#N)c1nc2c(C)ccc(F)c2c(=O)n1-c1cc[nH]n1 [Compound 36, (S)-2,4-diamino-6-((1-(5-fluoro-8-methyl-4-oxo-3-(1H-pyrazol-3-yl)-3,4-dihydroquinazolin-2-yl)propyl)amino)pyrimidine-5-carbonitrile] | 2 nM | 4100 nM | 5 nM |
| O=c1c2c(Cl)ccc(Cl)c2nc([C@@H](Nc2ncnc3scnc23)C2CC2)n1-c1cc[nH]n1 [Compound 37, (S)-5,8-dichloro-2-(cyclopropyl(thiazolo[5,4-d]pyrimidin-7-ylamino)methyl)-3-(1H-pyrazol-3-yl)quinazolin-4(3H)-one] | 1 nM | 5100 nM | 0.6 nM |
